Results published in ChEMBL document CHEMBL1143404, “New plasmid-mediated fluoroquinolone efflux pump, QepA, found in an Escherichia coli clinical isolate” (2007).
Converted amounts (≈) assume the structure as drawn. The source made the active and inactive calls. The calls are words filed in the database; no cut-off is given here.

Columns and labels:
Escherichia coli [1] = assay: Ratio of MIC for Escherichia coli KAM32 pSTVqepA mutant to MIC for Escherichia coli KAM32 pSTV28 mutant; type: functional
Escherichia coli [2] = assay: Antimicrobial activity against Escherichia coli KAM32 pSTV28 containing chloramphenicol-resistant vector by agar dilution method; type: functional
Escherichia coli [3] = assay: Antimicrobial activity against Escherichia coli KAM32 pHPA containing mutated GyrA gene by agar dilution method; type: functional
Escherichia coli [4] = assay: Antimicrobial activity against Escherichia coli KAM32 pSTVqepA containing qepA gene ligated to pSTV28 plasmid by agar dilution method; type: functional
Escherichia coli [5] = assay: Antimicrobial activity against Escherichia coli KAM32 expressing deltaacrB ydhE hsd gene by agar dilution method; type: functional
Escherichia coli [6] = assay: Antimicrobial activity against Escherichia coli KAM32 pSTVdeltaqepA containing disrupted qepA gene by agar dilution method; type: functional
Escherichia coli [7] = assay: Antimicrobial activity against multidrug-resistant Escherichia coli C316 pHPA containing mutated GyrA gene by agar dilution method; type: functional
[8] = biological target: T1, Plasmid efflux fluoroquinolone (Escherichia coli) (UniProt A5H8A5); assay: Inhibition of qepA-mediated drug efflux in Escherichia coli KAM32 assessed as increase in accumulation of Norfloxacin by fluorescence spectroscopy
T1 sequence (whole entry): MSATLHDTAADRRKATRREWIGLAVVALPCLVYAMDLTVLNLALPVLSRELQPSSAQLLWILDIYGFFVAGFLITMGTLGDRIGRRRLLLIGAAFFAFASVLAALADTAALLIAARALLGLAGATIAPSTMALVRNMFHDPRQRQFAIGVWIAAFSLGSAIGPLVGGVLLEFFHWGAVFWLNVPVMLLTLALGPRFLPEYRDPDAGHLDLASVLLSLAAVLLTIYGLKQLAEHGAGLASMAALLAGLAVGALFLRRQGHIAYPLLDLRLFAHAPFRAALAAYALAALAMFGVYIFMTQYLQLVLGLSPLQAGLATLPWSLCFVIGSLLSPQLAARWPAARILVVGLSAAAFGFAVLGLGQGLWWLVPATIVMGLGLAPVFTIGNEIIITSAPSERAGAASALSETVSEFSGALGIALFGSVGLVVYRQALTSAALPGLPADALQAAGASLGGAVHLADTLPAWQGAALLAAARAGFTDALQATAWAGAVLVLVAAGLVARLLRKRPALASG

SMILES: COc1c(N2CCNC(C)C2)c(F)cc2c(=O)c(C(=O)O)cn(C3CC3)c12 (configuration not stated) [GATIFLOXACIN]
- Ratio (Escherichia coli [1]): 8
- MIC (Escherichia coli [2]): 0.002 µg/mL (≈ 0.00533 µM)
- MIC (Escherichia coli [3]): 0.016 µg/mL (≈ 0.0426 µM)
- MIC (Escherichia coli [4]): 0.016 µg/mL (≈ 0.0426 µM)
- MIC (Escherichia coli [5]): 0.004 µg/mL (≈ 0.0107 µM)
- MIC (Escherichia coli [6]): 0.004 µg/mL (≈ 0.0107 µM)
- MIC (Escherichia coli [7]): 32 µg/mL (≈ 85.2 µM)

SMILES: CCn1cc(C(=O)O)c(=O)c2ccc(C)nc21 [NALIDIXIC ACID]
- Ratio (Escherichia coli [1]): 2
- MIC (Escherichia coli [2]): 1 µg/mL (≈ 4.31 µM)
- MIC (Escherichia coli [3]): 1 µg/mL (≈ 4.31 µM)
- MIC (Escherichia coli [4]): 2 µg/mL (≈ 8.61 µM)
- MIC (Escherichia coli [5]): 1 µg/mL (≈ 4.31 µM)
- MIC (Escherichia coli [6]): 1 µg/mL (≈ 4.31 µM)
- MIC (Escherichia coli [7]): > 128 µg/mL

SMILES: C[C@H](CCC(=O)O)[C@H]1CC[C@H]2[C@@H]3CC[C@@H]4C[C@H](O)CC[C@]4(C)[C@H]3C[C@H](O)[C@]12C [DEOXYCHOLIC ACID]
- Ratio (Escherichia coli [1]): 1
- MIC (Escherichia coli [2]): 512 µg/mL (≈ 1300 µM)
- MIC (Escherichia coli [3]): 512 µg/mL (≈ 1300 µM)
- MIC (Escherichia coli [4]): 512 µg/mL (≈ 1300 µM)
- MIC (Escherichia coli [5]): 1020 µg/mL (≈ 2610 µM)
- MIC (Escherichia coli [6]): 512 µg/mL (≈ 1300 µM)
- MIC (Escherichia coli [7]): > 1020 µg/mL

SMILES: O=C(O)c1cn(C2CC2)c2cc(N3CCNCC3)c(F)cc2c1=O [CIPROFLOXACIN]
- MIC (Escherichia coli [3]): 0.064 µg/mL (≈ 0.193 µM)
- MIC (Escherichia coli [7]): > 128 µg/mL

SMILES: CCCCCCCCCCCCOS(=O)(=O)[O-].[Na+] [SODIUM LAURYL SULFATE]
- Ratio (Escherichia coli [1]): 1
- MIC (Escherichia coli [2]): 128 µg/mL
- MIC (Escherichia coli [3]): 128 µg/mL
- MIC (Escherichia coli [4]): 128 µg/mL
- MIC (Escherichia coli [5]): 128 µg/mL
- MIC (Escherichia coli [6]): > 128 µg/mL

SMILES: CC1(C)S[C@@H]2[C@H](NC(=O)[C@H](N)c3ccccc3)C(=O)N2[C@H]1C(=O)O [AMPICILLIN]
- MIC (Escherichia coli [3]): > 128 µg/mL
- MIC (Escherichia coli [7]): > 128 µg/mL

SMILES: N#CC(C#N)=NNc1cccc(Cl)c1 [CARBONYL CYANIDE M-CHLOROPHENYLHYDRAZONE]
- Ratio (Escherichia coli [1]): 1
- MIC (Escherichia coli [2]): 16 µg/mL (≈ 78.2 µM)
- Activity [8]: Active
- MIC (Escherichia coli [3]): 16 µg/mL (≈ 78.2 µM)
- MIC (Escherichia coli [4]): 16 µg/mL (≈ 78.2 µM)
- MIC (Escherichia coli [5]): 16 µg/mL (≈ 78.2 µM)
- MIC (Escherichia coli [6]): 16 µg/mL (≈ 78.2 µM)
- MIC (Escherichia coli [7]): 16 µg/mL (≈ 78.2 µM)

SMILES: C[C@H]1COc2c(C3(N)CC3)c(F)cc3c(=O)c(C(=O)O)cn1c23 [PAZUFLOXACIN]
- Ratio (Escherichia coli [1]): 4
- MIC (Escherichia coli [2]): 0.004 µg/mL (≈ 0.0126 µM)
- MIC (Escherichia coli [3]): 0.016 µg/mL (≈ 0.0503 µM)
- MIC (Escherichia coli [4]): 0.016 µg/mL (≈ 0.0503 µM)
- MIC (Escherichia coli [5]): 0.004 µg/mL (≈ 0.0126 µM)
- MIC (Escherichia coli [6]): 0.004 µg/mL (≈ 0.0126 µM)
- MIC (Escherichia coli [7]): 16 µg/mL (≈ 50.3 µM)

SMILES: C[n+]1c2cc(N)ccc2cc2ccc(N)cc21.[Cl-] [EUFLAVINE]
- Ratio (Escherichia coli [1]): 2
- MIC (Escherichia coli [2]): 2 µg/mL
- MIC (Escherichia coli [3]): 4 µg/mL
- MIC (Escherichia coli [4]): 4 µg/mL
- MIC (Escherichia coli [5]): 2 µg/mL
- MIC (Escherichia coli [6]): 2 µg/mL
- MIC (Escherichia coli [7]): > 128 µg/mL

SMILES: COc1c(N2C[C@@H]3CCCN[C@@H]3C2)c(F)cc2c(=O)c(C(=O)O)cn(C3CC3)c12 [MOXIFLOXACIN]
- Ratio (Escherichia coli [1]): 8
- MIC (Escherichia coli [2]): 0.002 µg/mL (≈ 0.00498 µM)
- MIC (Escherichia coli [3]): 0.016 µg/mL (≈ 0.0399 µM)
- MIC (Escherichia coli [4]): 0.016 µg/mL (≈ 0.0399 µM)
- MIC (Escherichia coli [5]): 0.002 µg/mL (≈ 0.00498 µM)
- MIC (Escherichia coli [6]): 0.002 µg/mL (≈ 0.00498 µM)
- MIC (Escherichia coli [7]): 32 µg/mL (≈ 79.7 µM)

SMILES: CC[n+]1c(-c2ccccc2)c2cc(N)ccc2c2ccc(N)cc21.[Br-] [HOMIDIUM BROMIDE]
- Ratio (Escherichia coli [1]): 2
- MIC (Escherichia coli [2]): 4 µg/mL
- MIC (Escherichia coli [3]): 8 µg/mL
- MIC (Escherichia coli [4]): 8 µg/mL
- MIC (Escherichia coli [5]): 4 µg/mL
- MIC (Escherichia coli [6]): 4 µg/mL
- MIC (Escherichia coli [7]): > 128 µg/mL
